Values of other authors as cited in patent EP4516295A1, “PH-INDUCIBLE STRUCTURE-SWITCHING LIPID NANOVECTORS, SEMI-SYNTHETIC EXTRACELLULAR VESICLES, METHODS OF MAKING SAME AND USES THEREOF” (ETH Zurich, priority 2023, dated 2025).

Conditions: apparent acid dissociation constant prior to incorporation in LNVs

pKa | Structure (SMILES)
6.09 | CCCCCCCCC(CCCCCC)C(=O)OCCCCCCN(CCCCO)CCCCCCOC(=O)C(CCCCCC)CCCCCCCC (stereo not drawn) [ALC-0315]
5.9 | CCCC/C=C\C/C=C\CCCCCCCCCC1(CCCCCCCC/C=C\C/C=C\CCCCC)OCC(CN(C)C)O1 [D-Lin-K-DMA, N,N-dimethyl-1-(2-((10Z,13Z)-octadeca-10,13-dien-1-yl)-2-((9Z,12Z)-octadeca-9,12-dien-1-yl)-1,3-dioxolan-4 yl)methanamine]
6.68 | CCCC/C=C\C/C=C\CCCCCCCCCC1(CCCCCCCC/C=C\C/C=C\CCCCC)OCC(CCN(C)C)O1 (stereo not drawn) [DLin-KC2-DMA, N,N-dimethyl-2-(2-((10Z,13Z)-octadeca-10,13-dien-1-yl)-2-((9Z,12Z)-octadeca-9,12-dien-1-yl)-1,3-dioxolan-4-yl)ethan-1-amine]
7.2 | CCCC/C=C\C/C=C\CCCCCCCCCC1(CCCCCCCC/C=C\C/C=C\CCCCC)OCC(CCCN(C)C)O1 (stereo not drawn) [DLin-KC3-DMA, N,N-dimethyl-3-(2-((10Z,13Z)-octadeca-10,13-dien-1-yl)-2-((9Z,12Z)-octadeca-9,12-dien-1-yl)-1,3-dioxolan-4-yl)propan-1-amine]
7.3 | CCCC/C=C\C/C=C\CCCCCCCCCC1(CCCCCCCC/C=C\C/C=C\CCCCC)OCC(CCCCN(C)C)O1 (stereo not drawn) [DLin-KC4-DMA, N,N-dimethyl-4-(2-((10Z,13Z)-octadeca-10,13-dien-1-yl)-2-((9Z,12Z)-octadeca-9,12-dien-1-yl)-1,3-dioxolan-4-yl)butan-1-amine]
6.44 | CCCCC/C=C\C/C=C\CCCCCCCCC(CCCCCCCC/C=C\C/C=C\CCCCC)OC(=O)CCCN(C)C [DLin-MC3-DMA, 4-(dimethylamino)-butanoic acid, (10Z,13Z)-1-(9Z,12Z)-9,12-octadecadien-1-yl-10,13-nonadecadien-1-yl ester]
6.38 | CCCCCC/C=C\COC(=O)CCCCCCCC(CCCCCCCC(=O)OC/C=C\CCCCCC)OC(=O)CCCN(C)C [L319]
6.68 | CCCCCCCCCCCOC(=O)CCCCCN(CCO)CCCCCCCC(=O)OC(CCCCCCCC)CCCCCCCC [SM-102]

Structure (SMILES) | pKa
CCCCC/C=C\C/C=C\CCCCCCCCOCC(CN(C)C)OCCCCCCCC/C=C\C/C=C\CCCCC (stereo not drawn) [DLin-DMA, 1,2-dilinoleyloxy-N,N-dimethyl-3-aminopropane] | 6.8
